Reference: the NIST ThermoML archive (doi:10.1016/j.tca.2013.03.025)

Assay: xn = mol fraction of the nth substance listed
Conditions: 101 kPa, Liquid; for viscosity: Concentric cylinders viscometry; for mass density: Vibrating tube method

CCCCOC(=O)C(C)O (stereo not given) [butyl 2-hydroxypropanoate] + CC(O)CO
Conditions | mass density [kg/m3] | viscosity [mPa·s]
288.15 K, x1 = 0.0999 | 1028.94 | 49.57
288.15 K, x1 = 0.2 | 1020.52 | 32.76
288.15 K, x1 = 0.3 | 1014.01 | 22.44
288.15 K, x1 = 0.3999 | 1008.69 | 16.49
288.15 K, x1 = 0.4998 | 1004.11 | 12.5
288.15 K, x1 = 0.6 | 999.883 | 9.662
288.15 K, x1 = 0.6996 | 996.116 | 7.754
288.15 K, x1 = 0.7999 | 992.836 | 6.357
288.15 K, x1 = 0.9 | 990.017 | 5.352
288.15 K, x1 = 1 | 987.269 | 4.628
293.15 K, x1 = 0.0999 | 1025.09 | 36.74
293.15 K, x1 = 0.2 | 1016.49 | 24.82
293.15 K, x1 = 0.3 | 1009.81 | 17.35
293.15 K, x1 = 0.3999 | 1004.36 | 12.96
293.15 K, x1 = 0.4998 | 999.672 | 9.963
293.15 K, x1 = 0.6 | 995.344 | 7.814
293.15 K, x1 = 0.6996 | 991.481 | 6.325
293.15 K, x1 = 0.7999 | 988.111 | 5.256
293.15 K, x1 = 0.9 | 985.199 | 4.454
293.15 K, x1 = 1 | 982.366 | 3.88
298.15 K, x1 = 0.0999 | 1021.19 | 27.81
298.15 K, x1 = 0.2 | 1012.41 | 19.18
298.15 K, x1 = 0.3 | 1005.65 | 13.58
298.15 K, x1 = 0.3999 | 1000 | 10.3
298.15 K, x1 = 0.4998 | 995.208 | 8.084
298.15 K, x1 = 0.6 | 990.768 | 6.393
298.15 K, x1 = 0.6996 | 986.821 | 5.252
298.15 K, x1 = 0.7999 | 983.363 | 4.394
298.15 K, x1 = 0.9 | 980.366 | 3.772
298.15 K, x1 = 1 | 977.448 | 3.307
303.15 K, x1 = 0.0999 | 1017.29 | 21.45
303.15 K, x1 = 0.2 | 1008.34 | 15.08
303.15 K, x1 = 0.3 | 1001.42 | 10.86
303.15 K, x1 = 0.3999 | 995.637 | 8.42
303.15 K, x1 = 0.4998 | 990.737 | 6.606
303.15 K, x1 = 0.6 | 986.189 | 5.339
303.15 K, x1 = 0.6996 | 982.143 | 4.426
303.15 K, x1 = 0.7999 | 978.595 | 3.741
303.15 K, x1 = 0.9 | 975.512 | 3.226
303.15 K, x1 = 1 | 972.515 | 2.86
308.15 K, x1 = 0.0999 | 1013.34 | 16.82
308.15 K, x1 = 0.2 | 1004.23 | 12.05
308.15 K, x1 = 0.3 | 997.153 | 8.886
308.15 K, x1 = 0.3999 | 991.238 | 6.935
308.15 K, x1 = 0.4998 | 986.236 | 5.542
308.15 K, x1 = 0.6 | 981.583 | 4.506
308.15 K, x1 = 0.6996 | 977.444 | 3.772
308.15 K, x1 = 0.7999 | 973.812 | 3.212
308.15 K, x1 = 0.9 | 970.644 | 2.796
308.15 K, x1 = 1 | 967.567 | 2.481
313.15 K, x1 = 0.0999 | 1009.36 | 13.4
313.15 K, x1 = 0.2 | 1000.07 | 9.766
313.15 K, x1 = 0.3 | 992.852 | 7.317
313.15 K, x1 = 0.3999 | 986.813 | 5.772
313.15 K, x1 = 0.4998 | 981.71 | 4.666
313.15 K, x1 = 0.6 | 976.954 | 3.848
313.15 K, x1 = 0.6996 | 972.719 | 3.25
313.15 K, x1 = 0.7999 | 969.003 | 2.791
313.15 K, x1 = 0.9 | 965.755 | 2.449
313.15 K, x1 = 1 | 962.603 | 2.181
318.15 K, x1 = 0.0999 | 1005.34 | 10.83
318.15 K, x1 = 0.2 | 995.893 | 8.021
318.15 K, x1 = 0.3 | 988.531 | 6.099
318.15 K, x1 = 0.3999 | 982.364 | 4.873
318.15 K, x1 = 0.4998 | 977.162 | 3.982
318.15 K, x1 = 0.6 | 972.304 | 3.319
318.15 K, x1 = 0.6996 | 967.975 | 2.828
318.15 K, x1 = 0.7999 | 964.179 | 2.449
318.15 K, x1 = 0.9 | 960.848 | 2.163
318.15 K, x1 = 1 | 957.624 | 1.935
323.15 K, x1 = 0.0999 | 1001.29 | 8.864
323.15 K, x1 = 0.2 | 991.678 | 6.665
323.15 K, x1 = 0.3 | 984.178 | 5.141
323.15 K, x1 = 0.3999 | 978.01 | 4.159
323.15 K, x1 = 0.4998 | 972.59 | 3.435
323.15 K, x1 = 0.6 | 967.647 | 2.889
323.15 K, x1 = 0.6996 | 963.208 | 2.483
323.15 K, x1 = 0.7999 | 959.336 | 2.166
323.15 K, x1 = 0.9 | 955.922 | 1.924
323.15 K, x1 = 1 | 952.631 | 1.728
